Several values for one entry are separate records, joined by “and”; a condition that tells them apart may be missing. Equal values may be shown once. Values belong to the compound of their own block, whether it stands above or below them.
Tested on: 186277-243-T-J2-PDC complex spheroid growth, % test/control
Test: Anticancer human tumor 186277-243-T-J2-PDC patient-derived colon adenocarcinoma cell line growth inhibition [Asc]
Conditions: for viability, T/C: stronger effect = lower value
Experimental: Multicellular complex tumor spheroid response to apoptosis pathway targeting inhibitors Alrizomadlin, Pelcitoclax, and Dasminapant in combination with a variety of drugs and investigational agents in selected tumor cell lines
The MDM2 inhibitor alrizomadlin, the Bcl-2/Bcl-xL inhibitor pelcitoclax, and the IAPs inhibitor dasminapant were evaluated both individually and in combination with standard of care and investigational anticancer small molecules within a complex spheroid model of solid tumors. . Complex spheroids include a stromal component modeled by human endothelial cells (HUVEC) and fibroblasts modeled by human mesenchymal stem cells (MSCs). The concentration ranges selected for each drug and investigational agent were based upon clinically achievable concentrations if the clinical Cmax of the agent was known.
Compounds. The drugs and investigational agents: alrizomadlin (APG-115; NSC831270), pelcitoclax (APG-1252; NSC835773), dasminapant (APG-1387;NSC834197), TAK-243 (NSC785004), copanlisib (NSC809693), olaparib (NSC753686), talazoparib (NSC767125), cobimetinib (NSC 768068), eltanexor (KPT-8602, NSC 794443), abemaciclib (NSC 768073), sotorasib (NSC818433), adagrasib (NSC 831453), MRTX-1133 (NSC 836407), Iadademestat (ORY1001, NSC 806812), and RMC-4630 (NSC839698), were obtained from the NCI Developmental Therapeutics Program Chemical Repository. The FDA-approved anticancer drug set is available from the Developmental Therapeutics Program at https://dtp.cancer.gov/organization/dscb/obtaining/available plates.htm. […] The stock solutions were prepared in dimethyl sulfoxide (DMSO, Sigma-Aldrich, St. Louis, MO, cat. D2650) at 800-fold the tested concentration and stored at -70 degrees C prior to their use. All drugs and investigational agents were tested over a range starting from a high concentration at or near the clinical Cmax and decreasing in half-log increments. If the clinical Cmax for an agent had not been determined, the highest concentration tested was 10 microM.
The patient-derived cancer (PDC) cell lines include five colon adenocarcinomas: 186277-243-T-J2-PDC, 616215-338-R-J1-PDC, 439559-082-T-J2-PDC, 463943-066-T-J2-PDC, and 519858-162-T-J1-PDC; three pancreatic carcinomas: 323965-272-R-J2-PDC, 521955-158-R6-J3-PDC, and 521955-158-R2-J5-PDC; two uterine sarcomas: 327498-152-R-J2-PDC and 993429-296-R-J1-PDC; two rhabdomyosarcomas: 755483-174-R-J1-PDC and 772245-204-R-J1-PDC; two soft tissue sarcomas: 126254-015-R-J1-PDC and 494315-158-R-J1-PDC; two malignant fibrous histiocytomas: 317291-083-R-J1-PDC and 596521-263-R-J1-PDC; two breast carcinomas: 171881-019-R-J1-PDC and 885512-296-R-J2-PDC; and one ovarian carcinoma: 6556581-035-R-J-PDC were obtained from the NCI PDMR, (https://pdmr.cancer.gov). The established cell lines HSSY-2 synovial sarcoma (RRID:CVCL 8719), SYO-1 synovial sarcoma (RRID:CVCL_7146), MPNST malignant peripheral neural sheath tumor were obtained from the Sloan Kettering Institute. The following established cell lines were purchased from the American Type Culture Collection (ATCC, Manassas, VA), Sor the received from the NCI repository:, PANC-1 pancreatic carcinoma (CRL-1469, RRID:CVCL_0480), OVCAR-5 ovarian carcinoma (RRID:CVCL_1628), OVCAR-8 ovarian carcinoma (RRID:CVCL_1629), , MCF-7 breast carcinoma (CRL-12584, RRID:CVCL_0031), MDA-MB-231 breast carcinoma (CRL-12532, RRID:CVCL_0062), NCI-H1876 small cell lung carcinoma (CRL-5902, RRID:CVCL_1503), NCI-H510A small cell lung carcinoma (HTB-184, RRID:CVCL_1565), NCI-H1417 (CRL-5869, RRID:CVCL_1469), and NCI-H196 small cell lung carcinoma (CRL-5823, RRID:CVCL_1509). Dr. Peter Houghton (Greehey Children's Cancer Research Institute, University of Texas Health Science Center, San Antonio, TX) provided Rh-18 rhabdomyosarcoma (RRID:CVCL_1659). Pooled donor human umbilical vein endothelial cells (HUVEC, Lonza, cat. CC-2519) and human mesenchymal stem cells (hMSC, Lonza, cat. PT-2501) were purchased from Lonza (Walkersville, MD).
Cell Culture. […]
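Also: spheroids exposed to agents for 7 days.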
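For viability, T/C in this document: 100% = DMSO vehicle control wells.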

IC50 (curve of compound): 127 nM and 201 nM
Structure (SMILES): O=C(c1ccc(F)c(F)c1Nc1ccc(I)cc1F)N1CC(O)([C@@H]2CCCCN2)C1
viability, T/C (compound 0.00316 µM): 87.9% and 90.5% and 94.8% | viability, T/C (compound 0.01 µM): 88.2% and 90.8% and 78.7% | viability, T/C (compound 0.0316 µM): 97.7% and 88.7% and 90.1% | viability, T/C (compound 0.1 µM): 59.7% and 58.8% and 96.4% | viability, T/C (compound 0.316 µM): 14.8% and 15.4% and 23.9% | viability, T/C (compound 1 µM): 9.12% and 8.82% and 13.1%

IC50 (curve of first compound, second compound 0.1 µM): > 1000 nM | IC50 (curve of first compound, second compound 0.316 µM): > 1000 nM | IC50 (curve of first compound, second compound 1 µM): > 1000 nM | IC50 (curve of first compound, second compound 3.16 µM): 788 nM | IC50 (curve of first compound, second compound 10 µM): 738 nM
Structure (SMILES): CCN1CCN(Cc2ccc(Nc3ncc(F)c(-c4cc(F)c5nc(C)n(C(C)C)c5c4)n3)nc2)CC1 + Cc1c(S(C)(=O)=O)c(-c2cc(F)cc(N3CCN(c4ccc(NS(=O)(=O)c5ccc(NC(CCN6CCC(C(=O)OCCCP(=O)(O)O)CC6)CSc6ccccc6)c(S(=O)(=O)C(F)(F)F)c5)cc4)CC3)c2)c(-c2ccc(Cl)cc2)n1C(C)C
viability, T/C (second compound 0.1 µM, first compound 0.00316 µM): 107% | viability, T/C (second compound 0.1 µM, first compound 0.01 µM): 99.1% | viability, T/C (second compound 0.1 µM, first compound 0.0316 µM): 103% | viability, T/C (second compound 0.1 µM, first compound 0.1 µM): 125% | viability, T/C (second compound 0.1 µM, first compound 0.316 µM): 123% | viability, T/C (second compound 0.1 µM, first compound 1 µM): 75.3% | viability, T/C (second compound 0.316 µM, first compound 0.00316 µM): 95.2% | viability, T/C (second compound 0.316 µM, first compound 0.01 µM): 94.1% | viability, T/C (second compound 0.316 µM, first compound 0.0316 µM): 103% | viability, T/C (second compound 0.316 µM, first compound 0.1 µM): 115% | viability, T/C (second compound 0.316 µM, first compound 0.316 µM): 114% | viability, T/C (second compound 0.316 µM, first compound 1 µM): 67.7% | viability, T/C (second compound 1 µM, first compound 0.00316 µM): 86.6% | viability, T/C (second compound 1 µM, first compound 0.01 µM): 99.6% | viability, T/C (second compound 1 µM, first compound 0.0316 µM): 102% | viability, T/C (second compound 1 µM, first compound 0.1 µM): 120% | viability, T/C (second compound 1 µM, first compound 0.316 µM): 101% | viability, T/C (second compound 1 µM, first compound 1 µM): 56.7% | viability, T/C (second compound 3.16 µM, first compound 0.00316 µM): 96.4% | viability, T/C (second compound 3.16 µM, first compound 0.01 µM): 89.8% | viability, T/C (second compound 3.16 µM, first compound 0.0316 µM): 101% | viability, T/C (second compound 3.16 µM, first compound 0.1 µM): 113% | viability, T/C (second compound 3.16 µM, first compound 0.316 µM): 89.8% | viability, T/C (second compound 3.16 µM, first compound 1 µM): 39.6% | viability, T/C (second compound 10 µM, first compound 0.00316 µM): 91.3% | viability, T/C (second compound 10 µM, first compound 0.01 µM): 84.3% | viability, T/C (second compound 10 µM, first compound 0.0316 µM): 100% | viability, T/C (second compound 10 µM, first compound 0.1 µM): 110% | viability, T/C (second compound 10 µM, first compound 0.316 µM): 93.5% | viability, T/C (second compound 10 µM, first compound 1 µM): 34.2%

IC50 (curve of first compound, second compound 0.03 µM): 25.8 nM | IC50 (curve of first compound, second compound 0.0949 µM): 18.9 nM | IC50 (curve of first compound, second compound 0.3 µM): 12.9 nM | IC50 (curve of first compound, second compound 0.949 µM): < 3.16 nM | IC50 (curve of first compound, second compound 3 µM): < 3.16 nM
Structure (SMILES): COc1c(OCCCN2CCOCC2)ccc2c3n(c(=NC(=O)c4cnc(N)nc4)nc12)CCN3 + CCN1C(C(=O)NC23CCC(C(=O)O)(CC2)CC3)C(c2cccc(Cl)c2F)C2(C(=O)Nc3cc(Cl)ccc32)C12CCCCC2
viability, T/C (second compound 0.03 µM, first compound 0.00316 µM): 101% | viability, T/C (second compound 0.03 µM, first compound 0.01 µM): 75.2% | viability, T/C (second compound 0.03 µM, first compound 0.0316 µM): 46.7% | viability, T/C (second compound 0.03 µM, first compound 0.1 µM): 18.1% | viability, T/C (second compound 0.03 µM, first compound 0.316 µM): 9.99% | viability, T/C (second compound 0.03 µM, first compound 1 µM): 6.65% | viability, T/C (second compound 0.0949 µM, first compound 0.00316 µM): 67.3% | viability, T/C (second compound 0.0949 µM, first compound 0.01 µM): 64% | viability, T/C (second compound 0.0949 µM, first compound 0.0316 µM): 38.8% | viability, T/C (second compound 0.0949 µM, first compound 0.1 µM): 9.15% | viability, T/C (second compound 0.0949 µM, first compound 0.316 µM): 4.16% | viability, T/C (second compound 0.0949 µM, first compound 1 µM): 2.21% | viability, T/C (second compound 0.3 µM, first compound 0.00316 µM): 58.1% | viability, T/C (second compound 0.3 µM, first compound 0.01 µM): 58.4% | viability, T/C (second compound 0.3 µM, first compound 0.0316 µM): 21.4% | viability, T/C (second compound 0.3 µM, first compound 0.1 µM): 2.26% | viability, T/C (second compound 0.3 µM, first compound 0.316 µM): 1.06% | viability, T/C (second compound 0.3 µM, first compound 1 µM): 0.54% | viability, T/C (second compound 0.949 µM, first compound 0.00316 µM): 49.5% | viability, T/C (second compound 0.949 µM, first compound 0.01 µM): 40.1% | viability, T/C (second compound 0.949 µM, first compound 0.0316 µM): 9.96% | viability, T/C (second compound 0.949 µM, first compound 0.1 µM): 0.92% | viability, T/C (second compound 0.949 µM, first compound 0.316 µM): 0.3% | viability, T/C (second compound 0.949 µM, first compound 1 µM): 0.28% | viability, T/C (second compound 3 µM, first compound 0.00316 µM): 30.3% | viability, T/C (second compound 3 µM, first compound 0.01 µM): 24.8% | viability, T/C (second compound 3 µM, first compound 0.0316 µM): 5.08% | viability, T/C (second compound 3 µM, first compound 0.1 µM): 0.52% | viability, T/C (second compound 3 µM, first compound 0.316 µM): 0.33% | viability, T/C (second compound 3 µM, first compound 1 µM): 0.31%

From PubChem BioAssay AID1963426 (Molecular Pharmacology Branch, DTP, NCI, 2024)
